Measurements as given in patent US9907859B2 (priority 2010, dated 2018).
≈ marks a conversion by molar mass, not a printed value. Like-named read-outs stand apart in the source and are kept apart here.

What was measured:
in vivo [1] = conditions: both, cynomolgus monkey; for AUC(0-inf): AUCINF—obs; for bioavailability: cynomolgus, po
in vivo [2] = conditions: both, cynomolgus monkey, po; for AUC(0-inf): AUCINF—obs
VV = conditions: mouse, in vivo; cited from earlier work
[3] = mouse, in vivo; for AUC0-24: po, 300 mg/kg
in vivo [4] = conditions: for AUC(0-t) / Cmax / half-life / clearance: iv
physchem [5] = conditions: 37 °C, aqueous with cosolvent or surfactant or cyclodextrin, range of ST-246 solubilized by cyclodextrin
in vivo [6] = conditions: New Zealand White, rabbit, po, 100 mg/kg
physchem [7] = conditions: thermodynamic from solid
cowpox virus (CV) = conditions: in vitro, read-out: 50% effective concentration [EC50], inhibition of virus replication; cited from earlier work
[8] = rabbit, in vivo
physchem [9] = conditions: 70 °C, aqueous with cosolvent or surfactant or cyclodextrin
camelpox = conditions: read-out: 50% effective concentration [EC50], inhibition of virus replication; cited from earlier work

SMILES: O=C(NN1C(=O)C2C3C=CC(C4CC34)C2C1=O)c1ccc(C(F)(F)F)cc1 (stereo not shown) [ST-246, 4-trifluoromethyl-N-(3,3a,4,4a,5,5a,6,6a-octahydro-1,3-dioxo-4,6-ethenocycloprop[f]isoindol-2(1H)-yl)-benzamide]
- AUC(0-t) (in vivo [1]; iv, 1 mg/kg): 1.88 ± 0.455 µg·h/mL
- AUC(0-inf) (in vivo [1]; iv, 1 mg/kg): 1.94 ± 0.459 µg·h/mL
- clearance (in vivo [1]; iv, 1 mg/kg, CL): 8.95 mL/min/kg
- Cmax (in vivo [1]; iv, 1 mg/kg): 384 ± 112 ng/mL
- half-life (in vivo [1]; iv, 1 mg/kg, T1/2): 6.6 ± 6 h
- Tmax (in vivo [1]; iv, 1 mg/kg): 4 h
- AUC(0-t) (in vivo [1]; iv, 3 mg/kg): 5.65 ± 0.784 µg·h/mL
- AUC(0-inf) (in vivo [1]; iv, 3 mg/kg): 5.83 ± 0.87 µg·h/mL
- clearance (in vivo [1]; iv, 3 mg/kg, CL): 8.72 mL/min/kg
- Cmax (in vivo [1]; iv, 3 mg/kg): 1050 ± 185 ng/mL
- half-life (in vivo [1]; iv, 3 mg/kg, T1/2): 8.5 ± 3.2 h
- Tmax (in vivo [1]; iv, 3 mg/kg): 4 h
- AUC(0-t) (in vivo [1]; iv, 10 mg/kg): 21.1 ± 3.45 µg·h/mL
- AUC(0-inf) (in vivo [1]; iv, 10 mg/kg): 21.3 ± 3.4 µg·h/mL
- clearance (in vivo [1]; iv, 10 mg/kg, CL): 7.97 mL/min/kg
- Cmax (in vivo [1]; iv, 10 mg/kg): 4400 ± 935 ng/mL
- half-life (in vivo [1]; iv, 10 mg/kg, T1/2): 8.6 ± 1.3 h
- Tmax (in vivo [1]; iv, 10 mg/kg): 4 h
- AUC(0-inf) (in vivo [1]; iv, 15 mg/kg): 32.5 ± 5.7 µg·h/mL
- clearance (in vivo [1]; iv, 15 mg/kg, CL): 5.85 mL/min/kg
- Cmax (in vivo [1]; iv, 15 mg/kg): 7360 ± 1470 ng/mL
- half-life (in vivo [1]; iv, 15 mg/kg, T1/2): 9.1 ± 2.6 h
- Tmax (in vivo [1]; iv, 15 mg/kg): 4 h
- AUC(0-inf) (in vivo [1]; iv, 20 mg/kg): 59.6 ± 10.1 µg·h/mL
- clearance (in vivo [1]; iv, 20 mg/kg, CL): 5.88 mL/min/kg
- Cmax (in vivo [1]; iv, 20 mg/kg): 11800 ± 2000 ng/mL
- half-life (in vivo [1]; iv, 20 mg/kg, T1/2): 8.7 ± 2.5 h
- Tmax (in vivo [1]; iv, 20 mg/kg): 4 h
- AUC(0-inf) (in vivo [1]; iv, 30 mg/kg): 100 ± 18 µg·h/mL
- clearance (in vivo [1]; iv, 30 mg/kg, CL): 5.12 mL/min/kg
- Cmax (in vivo [1]; iv, 30 mg/kg): 20100 ± 4200 ng/mL
- half-life (in vivo [1]; iv, 30 mg/kg, T1/2): 7.8 ± 0.7 h
- Tmax (in vivo [1]; iv, 30 mg/kg): 4 h
- clearance (in vivo [1]; iv, clearance): ~8.33 mL/min/kg
- half-life (in vivo [1]; iv, elimination half-lives): 6.6 to 9.1 h
- half-life (in vivo [1]; iv, terminal elimination half-life): 6.6 to 8.6 h
- half-life (in vivo [1]; terminal elimination half-life): 8.9 h
- bioavailability (in vivo [1]; 3 mg/kg): 77%
- bioavailability (in vivo [1]; 20 mg/kg): 31%
- bioavailability (in vivo [1]; 30 mg/kg): 31%
- CL/F (in vivo [2]; 0.3 mg/kg): 15.3 mL/min/kg
- Tmax (in vivo [2]; 0.3 mg/kg): 2.5 h
- half-life (in vivo [2]; 0.3 mg/kg): 4 ± 1.3 h
- AUC(0-inf) (in vivo [2]; 0.3 mg/kg): 0.38 ± 0.149 µg·h/mL
- Cmax (in vivo [2]; 0.3 mg/kg): 53.8 ± 27.5 ng/mL
- AUC(0-t) (in vivo [2]; 3 mg/kg): 3.86 ± 0.862 µg·h/mL
- CL/F (in vivo [2]; 3 mg/kg): 11.2 mL/min/kg
- Tmax (in vivo [2]; 3 mg/kg): 3.3 h
- half-life (in vivo [2]; 3 mg/kg): 9.9 ± 6 h
- AUC(0-inf) (in vivo [2]; 3 mg/kg): 4.53 ± 0.49 µg·h/mL
- Cmax (in vivo [2]; 3 mg/kg): 496 ± 145 ng/mL
- AUC(0-t) (in vivo [2]; 10 mg/kg): 10.3 ± 3.06 µg·h/mL
- CL/F (in vivo [2]; 10 mg/kg): 15.3 mL/min/kg
- Tmax (in vivo [2]; 10 mg/kg): 3.8 h
- half-life (in vivo [2]; 10 mg/kg): 7 ± 0.9 h
- AUC(0-inf) (in vivo [2]; 10 mg/kg): 11.8 ± 3.67 µg·h/mL
- Cmax (in vivo [2]; 10 mg/kg): 1080 ± 279 ng/mL
- AUC(0-t) (in vivo [2]; 20 mg/kg): 13.4 ± 8.02 µg·h/mL
- CL/F (in vivo [2]; 20 mg/kg): 20.1 mL/min/kg
- Tmax (in vivo [2]; 20 mg/kg): 3.2 h
- half-life (in vivo [2]; 20 mg/kg): 7.2 ± 2.3 h
- AUC(0-inf) (in vivo [2]; 20 mg/kg): 15.5 ± 9.15 µg·h/mL
- Cmax (in vivo [2]; 20 mg/kg): 1480 ± 864 ng/mL
- AUC(0-t) (in vivo [2]; 30 mg/kg): 20.5 ± 8.05 µg·h/mL
- CL/F (in vivo [2]; 30 mg/kg): 16.5 mL/min/kg
- Tmax (in vivo [2]; 30 mg/kg): 3.6 h
- half-life (in vivo [2]; 30 mg/kg): 17.7 ± 13.8 h
- AUC(0-inf) (in vivo [2]; 30 mg/kg): 31.9 ± 7.36 µg·h/mL
- Cmax (in vivo [2]; 30 mg/kg): 1990 ± 873 ng/mL
- tail lesions (VV): significantly reduced
- increase of apparent clearance after oral dosing ([3]; female, BALB/c): approximately 10 fold
- AUC0-24 ([3]; female): 688.685 µg·h/mL
- AUC0-24 ([3]; male): 669.961 µg·h/mL
- bioavailability (in vivo [4]; female, BALB/c (oral), CD-1 (IV), mouse, 30 mg/kg): ~41%
- AUC(0-t) (in vivo [4]; female, BALB/c, mouse, 2.3 mg/kg, AUC0-24): 87.8 µg·h/mL
- Cmax (in vivo [4]; female, BALB/c, mouse, 2.3 mg/kg, Cmax): 22400 ng/mL
- AUC(0-t) (in vivo [4]; female, BALB/c, mouse, 3 mg/kg, AUC0-24): 100 µg·h/mL
- Cmax (in vivo [4]; female, BALB/c, mouse, 3 mg/kg, Cmax): 78400 ng/mL
- AUC(0-t) (in vivo [4]; female, BALB/c, mouse, 7.6 mg/kg, AUC0-24): 218 µg·h/mL
- Cmax (in vivo [4]; female, BALB/c, mouse, 7.6 mg/kg, Cmax): 37600 ng/mL
- AUC(0-t) (in vivo [4]; female, BALB/c, mouse, 30 mg/kg, AUC0-24): 300 µg·h/mL
- Cmax (in vivo [4]; female, BALB/c, mouse, 30 mg/kg, Cmax): 149000 ng/mL
- AUC(0-t) (in vivo [4]; female, BALB/c, mouse, 34.3 mg/kg, AUC0-24): 873 µg·h/mL
- Cmax (in vivo [4]; female, BALB/c, mouse, 34.3 mg/kg, Cmax): 162000 ng/mL
- half-life (in vivo [4]; female, CD-1, mouse): 2.5 to 4.5 h
- clearance (in vivo [4]; female, CD-1, mouse, 3 mg/kg): 0.717 mL/min/kg
- half-life (in vivo [4]; female, CD-1, mouse, 3 mg/kg): 4.5 h
- AUC(0-t) (in vivo [4]; female, CD-1, mouse, 3 mg/kg, AUC0-24): 67.9 µg·h/mL
- AUC(0-t) (in vivo [4]; female, CD-1, mouse, 3 mg/kg, AUC0-24 hr): 68 µg·h/mL
- Cmax (in vivo [4]; female, CD-1, mouse, 3 mg/kg, Cmax): 16700 ng/mL
- clearance (in vivo [4]; female, CD-1, mouse, 10 mg/kg): 0.417 mL/min/kg
- half-life (in vivo [4]; female, CD-1, mouse, 10 mg/kg): 2.8 h
- AUC(0-t) (in vivo [4]; female, CD-1, mouse, 10 mg/kg, AUC0-24): 408 µg·h/mL
- AUC(0-t) (in vivo [4]; female, CD-1, mouse, 10 mg/kg, AUC0-24 hr): 408 µg·h/mL
- Cmax (in vivo [4]; female, CD-1, mouse, 10 mg/kg, Cmax): 63500 ng/mL
- clearance (in vivo [4]; female, CD-1, mouse, 30 mg/kg): 0.7 mL/min/kg
- half-life (in vivo [4]; female, CD-1, mouse, 30 mg/kg): 2.5 h
- AUC(0-t) (in vivo [4]; female, CD-1, mouse, 30 mg/kg, AUC0-24): 709 µg·h/mL
- AUC(0-t) (in vivo [4]; female, CD-1, mouse, 30 mg/kg, AUC0-24 hr): 709 µg·h/mL
- Cmax (in vivo [4]; female, CD-1, mouse, 30 mg/kg, Cmax): 127000 ng/mL
- clearance (in vivo [4]; female, CD-1, mouse, 75 mg/kg): 1 mL/min/kg
- half-life (in vivo [4]; female, CD-1, mouse, 75 mg/kg): 2.8 h
- AUC(0-t) (in vivo [4]; female, CD-1, mouse, 75 mg/kg, AUC0-24): 1250 µg·h/mL
- AUC(0-t) (in vivo [4]; female, CD-1, mouse, 75 mg/kg, AUC0-24 hr): 1250 µg·h/mL
- Cmax (in vivo [4]; female, CD-1, mouse, 75 mg/kg, Cmax): 238000 ng/mL
- Cmax (in vivo [4]; female, CD-1, mouse, 75 mg/kg, mean Cmax): 238000 ng/mL
- Cmax (in vivo [4]; female, mouse, 30 mg/kg, Cmax): 120000 ng/mL
- AUC(0-t) (in vivo [4]; male, BALB/c, mouse, 2.3 mg/kg, AUC0-24): 73.3 µg·h/mL
- Cmax (in vivo [4]; male, BALB/c, mouse, 2.3 mg/kg, Cmax): 20000 ng/mL
- AUC(0-t) (in vivo [4]; male, BALB/c, mouse, 7.6 mg/kg, AUC0-24): 170 µg·h/mL
- Cmax (in vivo [4]; male, BALB/c, mouse, 7.6 mg/kg, Cmax): 53800 ng/mL
- AUC(0-t) (in vivo [4]; male, BALB/c, mouse, 34.3 mg/kg, AUC0-24): 798 µg·h/mL
- Cmax (in vivo [4]; male, BALB/c, mouse, 34.3 mg/kg, Cmax): 191000 ng/mL
- solubility (physchem [5]): 1500 to 11000 µg/mL (≈ 3.99 to 29.2 mM)
- AUC(0-t) (in vivo [6]; both): 19.8 µg·h/mL
- CL/F (in vivo [6]; both): 120 mL/min/kg
- Cmax (in vivo [6]; both): 2860 ng/mL
- half-life (in vivo [6]; both): 3.7 h
- AUC(0-t) (in vivo [6]; female): 8.18 µg·h/mL
- Cmax (in vivo [6]; female): 1230 ng/mL
- half-life (in vivo [6]; female): 1.3 h
- AUC(0-t) (in vivo [6]; male): 26.4 µg·h/mL
- Cmax (in vivo [6]; male): 4480 ng/mL
- half-life (in vivo [6]; male): 6 h
- solubility (physchem [7]; oil or lipid, absolute solubility of ST-246 in oils): < 5000 µg/mL
- solubility (physchem [7]; pH 6.8, aqueous buffer, ST-246 Solubility): < 100 µg/mL
- solubility (physchem [7]; simulated gastric fluid, ST-246 Solubility): < 100 µg/mL
- solubility (physchem [7]; water, ST-246 Solubility): < 100 µg/mL
- EC50 (cowpox virus (CV)): ≤ 70 nM
- time to full recovery ([8]; both, New Zealand White, iv, 60 mg/kg): 30 to 60 min
- tolerability [8]: well-tolerated
- tolerability ([8]; 3 mg/kg): well-tolerated
- tolerability ([8]; iv, 1 mg/kg): well tolerated
- clinical signs ([8]; iv, 60 mg/kg): lethargy, labored breathing and narcosis
- solubility (physchem [9]): 21200 µg/mL (≈ 56.4 mM)
- EC50 (camelpox): ≤ 70 nM
